Experimental data as given in ChEMBL document CHEMBL5316329, “Structure-Based Optimization of 2,4,5-Trisubstituted Pyrimidines as Potent HIV-1 Non-Nucleoside Reverse Transcriptase Inhibitors: Exploiting the Tolerant Regions of the Non-Nucleoside Reverse Transcriptase Inhibitors' Binding Pocket” (J Med Chem, 2023).

Assays:
[1] = Selectivity index, ratio of CC50 for human MT4 cells to EC50 for wild-type HIV-1 IIIB infected in human MT4 cells; assay type: toxicity, cell-based; details: read-out: Selectivity Index
[2] = biological target: Human immunodeficiency virus type 1 reverse transcriptase (Human immunodeficiency virus 1, UniProt Q72547); experiment: Inhibition of wild-type HIV-1 reverse transcriptase assessed as inhibition of biotin-dUTP incorporation
[3] = Cytotoxicity against human MT4 cells assessed as reduction in cell viability treated for 5 days by MTT assay; assay type: toxicity, cell-based; details: time 5 day
[4] = system: Human immunodeficiency virus 1; experiment: Antiviral activity against wild-type HIV-1 IIIB infected in human MT4 cells assessed as virus-induced cytopathicity treated for 5 days by MTT assay; assay type: functional, organism-based; details: Human immunodeficiency virus 1, IIIB, MT4, 120 h
[5] = Selectivity index, ratio of CC50 for human MT4 cells to EC50 for NNRTI-resistant HIV-1 RES056 infected in human MT4 cells; assay type: toxicity, cell-based; details: read-out: Selectivity Index
[6] = system: Human immunodeficiency virus 1; experiment: Antiviral activity against NNRTI-resistant HIV-1 RES056 infected in human MT4 cells assessed as virus-induced cytopathicity treated for 5 days by MTT assay; assay type: functional, organism-based; details: Human immunodeficiency virus 1, RES056, MT4, 120 h

## Cc1cc(/C=C/C#N)cc(C)c1Oc1nc(NC2CCN(Cc3ccc(S(C)(=O)=O)cc3)CC2)ncc1-c1ccccc1O
[1]
  selectivity ratio: 745
[2]
  IC50: 328 nM
[3]
  CC50 at 120 h: 6730 nM
[4]
  EC50: 9.04 nM
[5]
  selectivity ratio: 18
[6]
  EC50: 376 nM

## Cc1cc(/C=C/C#N)cc(C)c1Oc1nc(NC2CCN(Cc3ccc(C(N)=O)cc3)CC2)ncc1-c1ccccc1O
[1]
  selectivity ratio: 1870
[2]
  IC50: 178 nM
[3]
  CC50 at 120 h: 11200 nM
[4]
  EC50: 5.99 nM
[5]
  selectivity ratio: 91
[6]
  EC50: 123 nM

## Cc1cc(/C=C/C#N)cc(C)c1Oc1nc(NC2CCN(Cc3ccc(S(N)(=O)=O)cc3)CC2)ncc1-c1ccccc1O
[1]
  selectivity ratio: 1370
[2]
  IC50: 205 nM
[3]
  CC50 at 120 h: 12500 nM
[4]
  EC50: 9.15 nM
[5]
  selectivity ratio: 72
[6]
  EC50: 172 nM

## Cc1cc(/C=C/C#N)cc(C)c1Oc1nc(NC2CCN(Cc3ccc(C(N)=O)cc3)CC2)ncc1-c1ccc(F)cc1
[1]
  selectivity ratio: 1600
[2]
  IC50: 130 nM
[3]
  CC50 at 120 h: 8230 nM
[4]
  EC50: 5.15 nM
[5]
  selectivity ratio: 154
[6]
  EC50: 53.5 nM

## Cc1cc(/C=C/C#N)cc(C)c1Oc1nc(NC2CCN(Cc3ccc(S(N)(=O)=O)cc3)CC2)ncc1-c1ccccc1F
[1]
  selectivity ratio: 2760
[2]
  IC50: 130 nM
[3]
  CC50 at 120 h: 10900 nM
[4]
  EC50: 3.96 nM
[5]
  selectivity ratio: 107
[6]
  EC50: 101 nM

## Cc1cc(/C=C/C#N)cc(C)c1Cc1nc(NC2CCN(Cc3ccc(C(N)=O)cc3)CC2)ncc1-c1cnc(N)nc1
[1]
  selectivity ratio: 451
[2]
  IC50: 157 nM
[3]
  CC50 at 120 h: 3070 nM
[4]
  EC50: 6.82 nM
[5]
  selectivity ratio: 45
[6]
  EC50: 68.6 nM

## Cc1cc(/C=C/C#N)cc(C)c1Oc1nc(NC2CCN(Cc3ccc(S(N)(=O)=O)cc3)CC2)ncc1-c1ccc(F)cc1
[1]
  selectivity ratio: 1930
[2]
  IC50: 137 nM
[3]
  CC50 at 120 h: 9630 nM
[4]
  EC50: 4.98 nM
[5]
  selectivity ratio: 142
[6]
  EC50: 67.8 nM

## Cc1cc(/C=C/C#N)cc(C)c1Oc1nc(NC2CCN(Cc3ccc(C(N)=O)cc3)CC2)ncc1-c1cccc(F)c1
[1]
  selectivity ratio: 1850
[2]
  IC50: 163 nM
[3]
  CC50 at 120 h: 11300 nM
[4]
  EC50: 6.11 nM
[5]
  selectivity ratio: 100
[6]
  EC50: 113 nM

## Cc1cc(/C=C/C#N)cc(C)c1Oc1nc(NC2CCN(Cc3ccc(S(C)(=O)=O)cc3)CC2)ncc1-c1cccc(O)c1
[1]
  selectivity ratio: 756
[2]
  IC50: 164 nM
[3]
  CC50 at 120 h: 4350 nM
[4]
  EC50: 5.76 nM
[5]
  selectivity ratio: 64
[6]
  EC50: 68 nM

## Cc1cc(/C=C/C#N)cc(C)c1Oc1nc(NC2CCN(Cc3ccc(S(C)(=O)=O)cc3)CC2)ncc1-c1cccc(F)c1
[1]
  selectivity ratio: 916
[2]
  IC50: 228 nM
[3]
  CC50 at 120 h: 6650 nM
[4]
  EC50: 7.26 nM
[5]
  selectivity ratio: 54
[6]
  EC50: 123 nM

## Cc1cc(/C=C/C#N)cc(C)c1Oc1nc(NC2CCN(Cc3ccc(S(C)(=O)=O)cc3)CC2)ncc1-c1cccc(N)c1
[1]
  selectivity ratio: 682
[2]
  IC50: 136 nM
[3]
  CC50 at 120 h: 4120 nM
[4]
  EC50: 6.05 nM
[5]
  selectivity ratio: 78
[6]
  EC50: 52.8 nM

## Cc1cc(/C=C/C#N)cc(C)c1Cc1nc(NC2CCN(Cc3ccc(S(C)(=O)=O)cc3)CC2)ncc1-c1cnc(N)nc1
[1]
  selectivity ratio: 416
[2]
  IC50: 108 nM
[3]
  CC50 at 120 h: 1730 nM
[4]
  EC50: 4.16 nM
[5]
  selectivity ratio: 58
[6]
  EC50: 29.8 nM

## Cc1cc(/C=C/C#N)cc(C)c1Oc1nc(NC2CCN(Cc3ccc(S(C)(=O)=O)cc3)CC2)ncc1-c1ccccc1F
[1]
  selectivity ratio: 1710
[2]
  IC50: 161 nM
[3]
  CC50 at 120 h: 11600 nM
[4]
  EC50: 6.81 nM
[5]
  selectivity ratio: 63
[6]
  EC50: 183 nM

## Cc1cc(/C=C/C#N)cc(C)c1Oc1nc(NC2CCN(Cc3ccc(C(N)=O)cc3)CC2)ncc1-c1ccccc1N
[1]
  selectivity ratio: 2680
[2]
  IC50: 122 nM
[3]
  CC50 at 120 h: 11700 nM
[4]
  EC50: 4.4 nM
[5]
  selectivity ratio: 239
[6]
  EC50: 49.3 nM

## Cc1cc(/C=C/C#N)cc(C)c1Oc1nc(NC2CCN(Cc3ccc(S(C)(=O)=O)cc3)CC2)ncc1-c1ccccc1N
[1]
  selectivity ratio: 868
[2]
  IC50: 178 nM
[3]
  CC50 at 120 h: 5110 nM
[4]
  EC50: 5.89 nM
[5]
  selectivity ratio: 47
[6]
  EC50: 109 nM

## Cc1cc(/C=C/C#N)cc(C)c1Oc1nc(NC2CCN(Cc3ccc(S(C)(=O)=O)cc3)CC2)ncc1-c1ccc2c(c1)OCO2
[1]
  selectivity ratio: 776
[2]
  IC50: 161 nM
[3]
  CC50 at 120 h: 4290 nM
[4]
  EC50: 5.53 nM
[5]
  selectivity ratio: 73
[6]
  EC50: 59 nM

## Cc1cc(/C=C/C#N)cc(C)c1Cc1nc(NC2CCN(Cc3ccc(S(N)(=O)=O)cc3)CC2)ncc1-c1cnc(N)nc1
[1]
  selectivity ratio: 617
[2]
  IC50: 85 nM
[3]
  CC50 at 120 h: 2740 nM
[4]
  EC50: 4.44 nM
[5]
  selectivity ratio: 85
[6]
  EC50: 32.3 nM

## Cc1cc(/C=C/C#N)cc(C)c1Oc1nc(NC2CCN(Cc3ccc(S(N)(=O)=O)cc3)CC2)ncc1-c1cccc(F)c1
[1]
  selectivity ratio: 1490
[2]
  IC50: 194 nM
[3]
  CC50 at 120 h: 14200 nM
[4]
  EC50: 9.55 nM
[5]
  selectivity ratio: 108
[6]
  EC50: 132 nM

## Cc1cc(/C=C/C#N)cc(C)c1Oc1nc(NC2CCN(Cc3ccc(S(N)(=O)=O)cc3)CC2)ncc1-c1ccccc1N
[1]
  selectivity ratio: 953
[2]
  IC50: 159 nM
[3]
  CC50 at 120 h: 5490 nM
[4]
  EC50: 5.76 nM
[5]
  selectivity ratio: 60
[6]
  EC50: 91 nM

## CC(=O)c1ccc(-c2cnc(NC3CCN(Cc4ccc(S(C)(=O)=O)cc4)CC3)nc2Oc2c(C)cc(/C=C/C#N)cc2C)cc1
[1]
  selectivity ratio: 1540
[2]
  IC50: 199 nM
[3]
  CC50 at 120 h: 8460 nM
[4]
  EC50: 5.48 nM
[5]
  selectivity ratio: 91
[6]
  EC50: 93.4 nM

## Cc1cc(/C=C/C#N)cc(C)c1Oc1nc(NC2CCN(Cc3ccc(C(N)=O)cc3)CC2)ncc1-c1ccc(O)cc1
[1]
  selectivity ratio: 3760
[2]
  IC50: 171 nM
[3]
  CC50 at 120 h: 21300 nM
[4]
  EC50: 5.66 nM
[5]
  selectivity ratio: 142
[6]
  EC50: 150 nM

## Cc1cc(/C=C/C#N)cc(C)c1Oc1nc(NC2CCN(Cc3ccc(S(C)(=O)=O)cc3)CC2)ncc1-c1ccc(F)cc1
[1]
  selectivity ratio: 853
[2]
  IC50: 145 nM
[3]
  CC50 at 120 h: 4340 nM
[4]
  EC50: 5.09 nM
[5]
  selectivity ratio: 43
[6]
  EC50: 101 nM

## CC(=O)c1ccc(-c2cnc(NC3CCN(Cc4ccc(C(N)=O)cc4)CC3)nc2Oc2c(C)cc(/C=C/C#N)cc2C)cc1
[1]
  selectivity ratio: 2160
[2]
  IC50: 175 nM
[3]
  CC50 at 120 h: 11100 nM
[4]
  EC50: 5.16 nM
[5]
  selectivity ratio: 201
[6]
  EC50: 55.5 nM

## Cc1cc(/C=C/C#N)cc(C)c1Oc1nc(NC2CCN(Cc3ccc(C(N)=O)cc3)CC2)ncc1-c1ccccc1F
[1]
  selectivity ratio: 1420
[2]
  IC50: 154 nM
[3]
  CC50 at 120 h: 10500 nM
[4]
  EC50: 7.4 nM
[5]
  selectivity ratio: 55
[6]
  EC50: 192 nM

## Cc1cc(/C=C/C#N)cc(C)c1Oc1nc(NC2CCN(Cc3ccc(S(C)(=O)=O)cc3)CC2)ncc1-c1ccc(O)cc1
[1]
  selectivity ratio: 956
[2]
  IC50: 97 nM
[3]
  CC50 at 120 h: 5410 nM
[4]
  EC50: 5.67 nM
[5]
  selectivity ratio: 106
[6]
  EC50: 50.9 nM
